Blank lines part the entries; values can stand above or below the compound they belong to.
Experiments:
[1] = target: T1, HsPARP1 (full-length) (Homo sapiens, UniProt P09874); assay type: biochemical; conditions: histones as substrates
T1 construct: gene PARP1; full-length protein supplied in the PARP Universal Colorimetric Assay Kit (Trevigen)

[2] = target: T2, HsPARP1 catalytic domain (PARP domain) (Homo sapiens, UniProt P09874, L713F); assay: differential scanning fluorimetry; assay type: binding; conditions: 6(5H)-phenanthridinone concentrations above 2 µM
T2 construct: gene PARP1; recombinant, made in the authors' laboratory; only the L713F variant tested

[3] = target: T3, AtPARP2 (Arabidopsis thaliana, UniProt Q11207); assay: immunoprecipitated GFP fusion, pan-ADP-ribose immunoblot; assay type: biochemical; conditions: 300 µM β-NAD+ in extraction buffer; auto-ADP-ribosylation, PAR chain formation
T3 construct: gene PARP2; GFP fusion, transiently expressed in Nicotiana benthamiana, immunoprecipitated with GFP-nanobody
T3 sequence (Q11207 whole entry, the tested form may be a part): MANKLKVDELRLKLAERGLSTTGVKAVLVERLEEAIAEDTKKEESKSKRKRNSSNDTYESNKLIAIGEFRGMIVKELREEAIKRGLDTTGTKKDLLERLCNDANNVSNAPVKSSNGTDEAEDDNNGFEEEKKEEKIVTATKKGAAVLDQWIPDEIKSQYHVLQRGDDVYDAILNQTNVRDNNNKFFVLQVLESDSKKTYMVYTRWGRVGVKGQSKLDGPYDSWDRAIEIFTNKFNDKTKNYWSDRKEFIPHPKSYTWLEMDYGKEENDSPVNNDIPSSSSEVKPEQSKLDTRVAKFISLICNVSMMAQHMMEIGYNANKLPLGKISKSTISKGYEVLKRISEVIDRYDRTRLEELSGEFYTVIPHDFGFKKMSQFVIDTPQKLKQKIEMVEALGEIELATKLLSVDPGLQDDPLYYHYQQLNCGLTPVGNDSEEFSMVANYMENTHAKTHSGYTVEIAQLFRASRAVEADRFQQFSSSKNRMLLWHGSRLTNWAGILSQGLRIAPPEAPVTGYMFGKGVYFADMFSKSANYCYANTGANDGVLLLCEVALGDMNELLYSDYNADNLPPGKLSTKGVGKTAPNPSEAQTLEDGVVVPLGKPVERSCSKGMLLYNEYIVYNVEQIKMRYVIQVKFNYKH

T2 sequence (P09874 662-1014 L713F limits assumed): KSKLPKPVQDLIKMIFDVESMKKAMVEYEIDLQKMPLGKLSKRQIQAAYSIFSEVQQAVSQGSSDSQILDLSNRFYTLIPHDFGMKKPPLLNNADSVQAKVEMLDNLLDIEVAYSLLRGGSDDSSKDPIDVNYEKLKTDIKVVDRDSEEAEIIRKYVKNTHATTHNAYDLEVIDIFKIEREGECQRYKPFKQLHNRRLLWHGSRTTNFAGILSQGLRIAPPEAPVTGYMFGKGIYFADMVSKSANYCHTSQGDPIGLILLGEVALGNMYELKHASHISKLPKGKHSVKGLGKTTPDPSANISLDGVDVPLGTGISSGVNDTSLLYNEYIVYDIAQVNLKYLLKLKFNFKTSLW
T1 sequence (P09874 2-1014): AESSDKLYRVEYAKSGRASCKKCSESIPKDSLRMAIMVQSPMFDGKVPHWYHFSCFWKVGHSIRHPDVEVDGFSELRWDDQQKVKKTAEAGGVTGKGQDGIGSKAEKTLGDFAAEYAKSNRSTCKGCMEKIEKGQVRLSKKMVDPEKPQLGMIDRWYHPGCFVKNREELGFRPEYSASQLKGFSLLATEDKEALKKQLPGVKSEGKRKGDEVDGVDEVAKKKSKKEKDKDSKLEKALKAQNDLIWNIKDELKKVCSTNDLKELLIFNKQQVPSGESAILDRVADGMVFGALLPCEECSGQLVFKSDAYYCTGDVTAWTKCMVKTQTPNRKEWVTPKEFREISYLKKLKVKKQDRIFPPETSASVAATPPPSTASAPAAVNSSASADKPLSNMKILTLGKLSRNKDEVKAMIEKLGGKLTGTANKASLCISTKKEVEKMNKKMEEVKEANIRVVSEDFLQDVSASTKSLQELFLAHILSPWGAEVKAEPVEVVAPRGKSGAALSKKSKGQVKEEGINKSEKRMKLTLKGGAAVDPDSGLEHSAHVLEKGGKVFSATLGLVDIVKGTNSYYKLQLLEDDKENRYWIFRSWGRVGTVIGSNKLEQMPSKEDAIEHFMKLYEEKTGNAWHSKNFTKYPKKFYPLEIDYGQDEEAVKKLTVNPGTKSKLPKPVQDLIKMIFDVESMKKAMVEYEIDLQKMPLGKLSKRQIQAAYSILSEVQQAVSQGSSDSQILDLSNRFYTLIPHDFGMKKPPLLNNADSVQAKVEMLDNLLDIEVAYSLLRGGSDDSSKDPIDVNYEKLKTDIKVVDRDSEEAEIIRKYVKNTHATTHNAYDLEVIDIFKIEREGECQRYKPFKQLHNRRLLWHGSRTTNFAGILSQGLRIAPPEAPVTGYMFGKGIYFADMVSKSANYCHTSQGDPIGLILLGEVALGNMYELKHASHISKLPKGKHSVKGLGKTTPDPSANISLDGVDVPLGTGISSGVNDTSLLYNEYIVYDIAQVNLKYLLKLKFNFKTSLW

Compound: NC(=O)c1cccc(N)c1 [3-aminobenzamide]
colorimetric PARP assay kit, ADP-ribosylation of histones [1]: 3-aminobenzamide (3AB) inhibited ADP-ribosylation of histones by HsPARP1

dTm [2]: ~ +4 °C
Compound: O=c1[nH]c2ccccc2c2ccccc12 [6(5H)-phenanthridinone]

Compound: NC(=O)c1ccc[n+]([C@@H]2O[C@H](COP(=O)(O)OP(=O)(O)OC[C@H]3O[C@@H](n4cnc5c(N)ncnc54)[C@H](O)[C@@H]3O)[C@@H](O)[C@H]2O)c1 [NAD+]
immunoprecipitated GFP fusion, pan-ADP-ribose immunoblot [3]: canonical Arabidopsis PARP2 enzyme formed PAR chains in a NAD^+-dependent manner
